Data published in US4835100A (priority 1986, dated 1989).
Several values for one entry are separate records, joined by “and”; a condition that tells them apart may be missing. Equal values may be shown once.

Columns and labels:
[1] = test system: monoclonal antibody (1C6); format: binding, mouse
[2] = test system: Rabbit polyclonal anti-aflatoxin B1 antibody; conditions: cited from earlier work
[3] = test system: serum antibody of mouse 1; format: binding
[4] = test system: monoclonal antibody of Groopman et al; conditions: cited from earlier work
[5] = test system: monoclonal antibody (2F5); format: binding, mouse
[6] = test system: monoclonal antibody (2F5); format: binding, mouse; remark: listed apart in the source
[7] = test system: serum antibody of mouse 2; format: binding
monoclonal antibody 4E1 = conditions: cited from earlier work

Row | SMILES | % Cross-reactivity 3 (1C6) [1] | % Cross-reactivity Rabbit [2] | Percent Inhibition of serum antibody binding to solid phase [3] | % Cross-reactivity 5 [4] | % Cross-reactivity 1 (2F5) [5] | concentration for 50% inhibition of antibody binding in the ELISA [5] | % Cross-reactivity 2 (2F5) [6] | Percent Inhibition of serum antibody binding to solid phase [7] | % Cross-reactivity 4 (monoclonal antibody 4E1)
1 | COc1cc2c(c3oc(=O)c4c(c13)CCC4=O)[C@@H]1C=CO[C@@H]1O2 [Aflatoxin B1, aflatoxin B1] | 100.00% | 100.0% | 0 | 100.0% | 100.0% | 2.8 ng/mL | 100.0% | 44.6 and 44.3 and 28.7 and 33.6 and 23.5 | 100.0%
2 | COc1cc2c(c3oc(=O)c4c(c13)CCC4=O)[C@@H]1CCO[C@@H]1O2 [Aflatoxin B2, aflatoxin B2] | 6.7% | 131.6% |  | 100.0% | 4.0% | 70.8 ng/mL | 0.2% |  | 12.6%
3 | COc1cc2c(c3oc(=O)c4c(c13)CCOC4=O)[C@@H]1C=CO[C@@H]1O2 [Aflatoxin G1, aflatoxin G1] | 193.0% | 31.2% |  | 5.0% | 175.0% | 1.6 ng/mL | 26.6% |  | 14.3%
4 | COc1cc2c(c3oc(=O)c4c(c13)CCOC4=O)[C@@H]1CCO[C@@H]1O2 [Aflatoxin G2, aflatoxin G2] | 2.3% | 1.3% |  | 3.6% | 5.0% | 56.2 ng/mL | < 0.01% |  | 1.2%
5 | COc1cc2c(c3oc(=O)c4c(c13)CCC4=O)[C@]1(O)C=CO[C@@H]1O2 [Aflatoxin M1, aflatoxin M1] | 3.9% | 0% |  | 100.0% | 4.5% | 63.1 ng/mL | 3.7% |  | 7.3%
